What was measured:
human ATB^0,+ [1] = molecular target: T1, human ATB^0,+ (Homo sapiens, UniProt Q9UN76); assay: L-tryptophan-induced inward currents in X. laevis oocytes expressing human ATB^0,+; type: cell-based; settings: 20 μM L-tryptophan (sub-saturating)
T1 construct: The human ATB^0,+ cDNA was cloned from an MCF7 cell (a human mammary epithelial cancer cell line) cDNA library; expressed in transfected cells; host or cells: Xenopus laevis oocytes injected with 50 ng capped cRNA
T1 sequence (Q9UN76 1-642): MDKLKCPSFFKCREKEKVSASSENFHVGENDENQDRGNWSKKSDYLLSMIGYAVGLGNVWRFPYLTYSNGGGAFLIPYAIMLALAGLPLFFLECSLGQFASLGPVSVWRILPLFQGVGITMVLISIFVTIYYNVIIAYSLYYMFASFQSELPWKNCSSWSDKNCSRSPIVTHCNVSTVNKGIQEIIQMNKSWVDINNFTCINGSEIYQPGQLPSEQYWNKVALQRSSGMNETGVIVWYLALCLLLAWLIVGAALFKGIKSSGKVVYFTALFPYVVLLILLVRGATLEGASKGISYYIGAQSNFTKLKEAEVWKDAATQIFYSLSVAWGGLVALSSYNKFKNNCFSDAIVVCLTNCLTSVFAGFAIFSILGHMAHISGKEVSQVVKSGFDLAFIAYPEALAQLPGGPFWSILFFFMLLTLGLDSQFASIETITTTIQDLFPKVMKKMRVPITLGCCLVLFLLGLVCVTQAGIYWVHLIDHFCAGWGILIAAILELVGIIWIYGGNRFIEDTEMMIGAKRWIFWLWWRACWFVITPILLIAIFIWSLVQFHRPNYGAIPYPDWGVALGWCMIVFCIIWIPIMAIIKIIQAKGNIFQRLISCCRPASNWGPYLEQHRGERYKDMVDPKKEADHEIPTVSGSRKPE
Experimental: Capped cRNA from the cloned mouse or human ATB^0,+ cDNA was synthesized using the mMESSAGE mMACHTNE kit (Ambion, Austin, Tex., U.S.A.). Mature oocytes (stage IV or V) from X. laevis were injected with 50 ng of cRNA. Uninjected oocytes served as controls. The oocytes were used for electrophysiological studies 3-6 days after cRNA injection. Electrophysiological studies were performed by the two-microelectrode voltage-clamp method (Nakanishi et al., 2001, J. Physiol. 532, 297-304). Oocytes were superfused with an NaCl-containing buffer (100 mM NaCl, 2 mM KCl, 1 mM MgCl2, 1 mM CaCl2, 3 mM Hepes, 3 mM Mes and 3 mM Tris, pH 7.5), followed by the same buffer containing tryptophan derivatives. The membrane potential was clamped at −50 mV. The differences between the steady-state currents measured in the presence and absence of substrates were considered as the substrate-induced currents. In the analysis of the saturation kinetics of substrate-induced currents, the kinetic parameter K0.5 (i.e. substrate concentration necessary for induction of half-maximal current) was calculated by fitting the values of the substrate-induced currents to the Michaelis-Menten equation. The Na^+ and Cl^− activation kinetics of substrate-induced currents were analysed by measuring the substrate-specific currents in the presence of increasing concentrations of Na^+ (concentration of Cl^− kept constant at 100 mM) or in the presence of increasing concentrations of Cl^− (concentration of Na^+ kept constant at 100 mM). In these experiments, the composition of the superfusion buffer was modified to contain 2 mM potassium gluconate, 1 mM MgSO4 and 1 mM calcium gluconate in place of KCl, MgCl2 and CaCl2 respectively. The data from these experiments were analysed by the Hill equation to determine the Hill coefficient (h; number of Na^+ and Cl^− ions involved in the activation process). The kinetic parameters were determined by using the commercially available computer program Sigma Plot, version 6.0 (SPSS, Chicago, Ill., U.S.A.). […]

mouse ATB^0,+ [2] = molecular target: T2, mouse ATB^0,+ (Mus musculus, UniProt Q9JMA9); assay: Substrate-induced inward currents in X. laevis oocytes expressing mouse ATB^0,+ (two-microelectrode voltage clamp); type: cell-based; settings: saturation kinetics; NaCl; voltage clamp
T2 sequence (Q9JMA9 1-638): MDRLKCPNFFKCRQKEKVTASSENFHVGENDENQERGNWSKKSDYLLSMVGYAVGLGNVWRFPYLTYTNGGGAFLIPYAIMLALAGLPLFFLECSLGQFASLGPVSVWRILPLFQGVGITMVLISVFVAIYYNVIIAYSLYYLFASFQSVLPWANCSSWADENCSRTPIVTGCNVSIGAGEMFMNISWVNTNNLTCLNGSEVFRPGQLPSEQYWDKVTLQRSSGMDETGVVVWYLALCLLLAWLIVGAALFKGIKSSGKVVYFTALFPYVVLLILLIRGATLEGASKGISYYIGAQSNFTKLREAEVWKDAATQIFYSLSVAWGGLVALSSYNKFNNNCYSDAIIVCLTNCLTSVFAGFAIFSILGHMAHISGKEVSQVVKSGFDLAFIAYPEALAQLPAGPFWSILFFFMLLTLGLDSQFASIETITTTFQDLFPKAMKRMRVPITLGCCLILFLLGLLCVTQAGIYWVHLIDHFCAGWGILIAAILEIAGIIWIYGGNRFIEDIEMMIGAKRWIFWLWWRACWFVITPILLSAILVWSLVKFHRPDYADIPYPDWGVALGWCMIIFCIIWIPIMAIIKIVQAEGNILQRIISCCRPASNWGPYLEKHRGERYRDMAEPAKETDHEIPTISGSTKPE
Experimental: (§1) Capped cRNA from the cloned mouse or human ATB^0,+ cDNA was synthesized using the mMESSAGE mMACHTNE kit (Ambion, Austin, Tex., U.S.A.). Mature oocytes (stage IV or V) from X. laevis were injected with 50 ng of cRNA. Uninjected oocytes served as controls. The oocytes were used for electrophysiological studies 3-6 days after cRNA injection. Electrophysiological studies were performed by the two-microelectrode voltage-clamp method (Nakanishi et al., 2001, J. Physiol. 532, 297-304). Oocytes were superfused with an NaCl-containing buffer (100 mM NaCl, 2 mM KCl, 1 mM MgCl2, 1 mM CaCl2, 3 mM Hepes, 3 mM Mes and 3 mM Tris, pH 7.5), followed by the same buffer containing tryptophan derivatives. The membrane potential was clamped at −50 mV. The differences between the steady-state currents measured in the presence and absence of substrates were considered as the substrate-induced currents. In the analysis of the saturation kinetics of substrate-induced currents, the kinetic parameter K0.5 (i.e. substrate concentration necessary for induction of half-maximal current) was calculated by fitting the values of the substrate-induced currents to the Michaelis-Menten equation. The Na^+ and Cl^− activation kinetics of substrate-induced currents were analysed by measuring the substrate-specific currents in the presence of increasing concentrations of Na^+ (concentration of Cl^− kept constant at 100 mM) or in the presence of increasing concentrations of Cl^− (concentration of Na^+ kept constant at 100 mM). In these experiments, the composition of the superfusion buffer was modified to contain 2 mM potassium gluconate, 1 mM MgSO4 and 1 mM calcium gluconate in place of KCl, MgCl2 and CaCl2 respectively. The data from these experiments were analysed by the Hill equation to determine the Hill coefficient (h; number of Na^+ and Cl^− ions involved in the activation process). The kinetic parameters were determined by using the commercially available computer program Sigma Plot, version 6.0 (SPSS, Chicago, Ill., U.S.A.). Uninjected oocytes were used to determine the currents induced by tryptophan derivatives due to entry via transporters that may be constitutively expressed in the oocytes. At a concentration of 2.5 mM, the currents induced by these compounds were in the range of 0-3 nA in uninjected oocytes. These currents were less than 2% of the corresponding currents induced in ATB^0,+ cRNA-injected oocytes. Therefore the endogenous currents associated with the constitutively expressed transporters were not considered in the analysis of kinetic parameters of ATB^0,+ transport activity.
The above studies with the mammalian cell expression system have focused on the interaction of 1-methyltryptophan and other tryptophan derivatives with ATB^0,+ by examining the effects of these compounds on the transporter-mediated glycine uptake. These studies have shown convincingly that 1-methyltryptophan interacts with ATB^0,+, with the L-isomer having much higher affinity for the transporter than the D-isomer. However, these studies have not shown whether or not 1-methyltryptophan is actually a transportable substrate for ATB^0,+. It is possible that 1-methyltryptophan inhibits ATB^0,+-mediated glycine uptake simply by blocking the interaction of glycine with the substrate-binding site of the transporter, rather than by actually competing with glycine for the transport process. […] We wanted to know whether 1-methyltryptophan can actually be transported by ATB^0,+. For this, we used the X. laevis oocyte expression system. Since the transport process mediated by ATB^0,+ is electrogenic, exposure of ATB^0,+-expressing oocytes to transportable substrates will induce an inward current in an Na^+- and Cl^−-dependent manner. Exposure of the same oocytes to blockers will interfere with currents induced by transportable substrates, but will not induce currents by themselves. […]

mouse ATB^0,+ [3] = molecular target: T2, mouse ATB^0,+; assay: Inhibition of ATB^0,+-mediated glycine uptake in HRPE cells expressing cloned mouse ATB^0,+; type: cell-based; settings: glycine 10 μM; inhibitor 1 mM; 30 min; NaCl; HRPE cells
LS174T cells = assay: Autophagy: immunofluorescent localization of LC-3 in colon cancer cells; type: cell-based, human; settings: 24 hours exposure
Experimental: (§2) The mTOR pathway plays a critical role in nutrient signaling in mammalian cells (Wang and Proud, 2006, Physiology (Bethesda) 21: 362-369). Amino acid starvation leads to specific changes in this pathway. We sought evidence for amino acid starvation in ATB^0,+-positive colon cancer cell lines when exposed to α-methyl-L-tryptophan (α-MLT) (250 μM). […] These changes were also accompanied with cell cycle arrest in cancer cell lines (FIG. 16). In the normal cell line CCD841, there was no difference between control and α-MLT-treated cells in terms of percent of cells in difference cell cycle stages. […] The phosphorylation pattern observed in the two cancer cell lines is a hallmark of changes in mTOR pathway in response to amino acid deprivation. Autophagy (self-cannabilism) is another cellular process that is induced when cells undergo amino acid deprivation (Eisenberg-Lerner and Kimchi, 2009, Apoptosis 14: 376-391). To survive in the absence of exogenous essential amino acids during amino acid deprivation, cells engage in autophagic degradation of intracellular macromolecules and organelles as a source of these amino acids. Therefore, we investigated the process of autophagy in LS174T cells with and without exposure to α-MLT for 24 hours. For this, we analyzed the distribution of LC-3 protein. […] Apoptosis was quantified by FACS analysis.

human ATB^0,+ [4] = molecular target: T1, human ATB^0,+; assay: Block of inward currents induced by amino acid mixture simulating plasma in X. laevis oocytes expressing human ATB^0,+; type: cell-based
Experimental: as §1
These studies with α-methyl-DL-tryptophan as a blocker of ATB^0,+ were carried out with L-tryptophan at sub-saturating concentrations. […] Therefore, using the Xenopus oocyte heterologous expression system, we monitored the transport activity of human ATB^0,+ in the presence of an amino acid mixture consisting of 18 different amino acids, each at its respective physiological concentration found in plasma (Glew et al., 2004, Clin. Chim. Acta 342, 179-185) (Table 1). Inward currents were detected under these conditions in oocytes expressing human ATB^0,+. […] We then monitored the ability of α-methyl-DL-tryptophan to block the inward currents induced by the same mixture of amino acids in oocytes expressing human ATB^0,+ (FIG. 4B). […]

HCT116 and LS174T cells [5] = assay: Apoptosis (sub-G1 cells, FACS) in colon cancer cell lines; type: cell-based, human; settings: 72 hours
Experimental: as §2

CCD841 cells [6] = assay: Autophagy: immunofluorescent localization of LC-3 in normal colon cells; type: cell-based, human; settings: absence or presence of α-MLT
HCT116 and LS174T cells [7] = assay: Cell cycle analysis in colon cancer cell lines; type: cell-based, human; settings: 250 μM; 24 hour
Experimental: as §2

HCT116 and LS174T cells [8] = assay: Amino acid starvation markers: ASNS and CHOP gene induction in ATB^0,+-positive colon cancer cell lines; type: cell-based, human; settings: 250 μM; 24 hour exposure
Experimental: as §2

CCD841 cells [9] = assay: mTOR pathway: phosphorylation of S6 protein and S6 kinase in normal colon cell line; type: cell-based, human; settings: 24 h exposure
Experimental: as §2

HCT116 and LS174T cells [10] = assay: mTOR pathway: phosphorylation of S6 protein and S6 kinase in colon cancer cell lines; type: cell-based, human; settings: 24 h exposure
Experimental: as §2

CCD841 cells [11] = assay: Cell cycle analysis in normal colon cell line; type: cell-based, human; settings: 250 μM; 24 hour
Experimental: as §2

SMILES | inward currents induced by L-tryptophan (human ATB^0,+ [1]) | Michaelis constant (K0.5) of substrate-induced currents (mouse ATB^0,+ [2]) | inhibition of ATB^0,+-specific glycine uptake (mouse ATB^0,+ [3]) | punctate fluorescent signals for LC-3 (autophagy) (LS174T cells) | IC50 (human ATB^0,+ [4]; 18 amino acids at normal plasma concentrations, read-out: concentration necessary to elicit 50% of maximal inhibition (IC50) of amino acid mixture-induced currents) | IC50 of L-isomer relative to DL-form (times less) (human ATB^0,+ [4]; amino acid mixture simulating plasma) | percent of apoptotic cells (cells in sub-G1 phase) (HCT116 and LS174T cells [5]) | autophagy (CCD841 cells [6]) | percent of cells in G1 phase (HCT116 and LS174T cells [7]) | percent of cells in S and G2/M phases (HCT116 and LS174T cells [7]) | induction of ASNS and CHOP genes (HCT116 and LS174T cells [8]) | phosphorylation of S6 protein and S6 kinase (CCD841 cells [9]) | phosphorylation of S6 protein and S6 kinase (HCT116 and LS174T cells [10]) | percent of cells in different cell cycle stages, control versus treated (CCD841 cells [11])
N[C@@H](Cc1c[nH]c2ccccc12)C(=O)O [L-tryptophan] | ~30 nA | 26 ± 3 µM | inhibited |  |  |  |  |  |  |  |  |  |  | 
C[C@](N)(Cc1c[nH]c2ccccc12)C(=O)O [α-methyl-L-tryptophan, α-Methyl-L-Tryptophan] |  |  |  | showed clear evidence of such signals | 18 ± 5 µM | 14 times | increased the percent of apoptotic cells | did not undergo autophagy | increased significantly | decreased | induced | not in CCD841 cells | decreased phosphorylation | no difference
